In patent publication US20220304945A1, “METHODS OF TREATING METABOLIC SYNDROME RELATED CONDITIONS USING RETINOIC ACID RECEPTOR AGONISTS” (Cornell University, priority 2014, published 2022):
“Also recorded” adds a separate entry of the source.

Tests used:
Type in all cases: in vivo, mouse
[1] = HPLC analysis of serum and liver retinoids, HF-fed mice; settings: for liver retinyl palmitate and retinol compared to controls: HF diet mice vs control diet
Source text: (§1) Mice, diet, and drug treatment. WT male C57/BL6 male mice were maintained on either a standard laboratory chow-fed diet (CFD) with 13% kcal fat, (diet #5053, Lab Diet, Inc, St. Louis, Mo.) or a high fat, western style diet (HFD) with 60% kcals from fat, (diet #58126, Lab Diet, Inc., St. Louis, Mo.) for 4 months. One month after the start of the high fat diet treatment, the high fat diet group was further split into 2 groups for 3 months: i) high fat diet and the drinking water containing 1% DMSO; ii) high fat diet and the drinking water containing 1.5 mg/100 ml AC261066, a specific RARβ agonist. Then mice were sacrificed by cervical dislocation. Blood and various tissue samples were harvested.
(§2) Analysis of serum and liver retinoids. The frozen liver tissue samples (˜100 mg) were homogenized in 500 μl cold phosphate-buffered saline (PBS). In addition, 100 μl serum was diluted in cold PBS to total volume of 500 μl. Retinyl acetate was added to each sample before the retinoid extraction for the calculation of extraction efficiency. The retinoids were extracted into 350 μl of organic solution (acetonitrile/butanol, 50:50, v/v) in the dark. The high performance liquid chromatography (HPLC) was performed using a Waters Millennium system (Waters). Each sample (100 μl of the 350 μl) was loaded onto an analytical 5-μm reverse phase C18 column (Vydac, Hesperia, Calif.) and eluted at a flow rate of 1.5 ml/min. Two mobile phase gradient systems were used. Retinoids were identified by HPLC based on two criteria: an exact match of the retention times of unknown peaks with those of authentic retinoid standards and identical UV light spectra (220-400 nm) of unknowns against spectra from authentic retinoid standards during HPLC by the use of a photodiode array detector. The amounts of retinoids were calculated from the areas under the peaks detected at the wave-length of 325 nm. The levels of retinol and retinyl esters were normalized to the tissue weight.
as §2, with “Millenium” for “Millennium”

[2] = test system: α-SMA, SREBP1c, MCP-1, TNF-α mRNA; test: Semi-quantitative PCR of liver, HF-fed mice; settings: HF diet mice 4 months
Source text: as §1
Semi-Quantitate PCR (Liver). Total RNA was extracted from mouse tissues using TRIzol reagent (Life technologies) and (1 μg) was used to synthesize cDNA. cDNA synthesis was performed at 42° C. for 1 h in a final volume of 20 μl using qScript (Quanta, MD). Semi-quantitative PCR were performed Taq DNA polymerase (Invitrogen, CA). Three step PCR was run as follows: 94° C. for 30 s, 58-64° C. for 45 s for primer annealing and 72° C. for 1 min for primer extension. The number of cycles for each primer pair for amplification in the linear range was determined experimentally. PCR products were resolved on 2% agarose gels and visualized by staining with ehtidium bromide. Primers for gene expression used were as follows: […]

HF-fed C57/BL6 mice [3] = test: Renal lipid accumulation: H and E and oil red O staining of kidney, HF-fed mice; settings: HF diet mice 4 months; vs HF-vehicle
Source text: as §1
(§3) Hematoxylin and Eosin Staining. At sacrifice, fresh mouse liver samples were fixed in 4% formaldehyde solution for 24 hr and embedded in paraffin blocks. Kidney paraffin sections were cut 5 microns thick and mounted on glass slides and stained with hematoxylin and eosin (H and E) using standard protocols.
Combined oil red O and Immunofluorescence staining. Fresh mouse kidney samples were embedded in optimal cutting temperature (OCT) medium and immediately frozen to −70 centigrade. Cryosections were then fixed in 4% formaldehyde for 1 hr at room temp. Slides were then rinsed three times in deionized water (dH2O) for 30 s, followed by treatment with 0.5% Triton X-100 in PBS for 5 min. Sections were then washed three times with PBS for 5 min. Samples were with incubated 2% bovine serum albumin (BSA) for 30 min at room temperature to block for unspecific antibody binding. Following blocking, sections were washed three times in PBS and incubated with mouse monoclonal antibody against α-SMA (1:500) (Dako, Inc) for 24 h at 4° C. After 24 h sections were washed three times in PB and incubated with Alexa-Flour-488 anti-mouse secondary anti-body (1:500) (Invitrogen, Inc) for 30 min at room temperature. Sections were then washed three times in PBS and incubated with working strength oil-red O solution for 30 minutes at room temperature. […]

HF-fed C57/BL6 mice [4] = test: Hepatic steatosis: H and E and oil red O staining of liver, HF-fed mice; settings: HF diet mice 4 months; vs HF-vehicle
Source text: as §1
as §3, with “Liver” for “Kidney”
(§4) Combined oil red O and Immunofluorescence. Staining. Fresh mouse liver samples were embedded in optimal cutting temperature (OCT) medium and immediately frozen to −70 centigrade. Cryosections were then fixed in 4% formaldehyde for 1 hr at room temp. Slides were then rinsed three times in deionized water (dH2O) for 30 s, followed by treatment with 0.5% Triton X-100 in PBS for 5 min. Sections were then washed three times with PBS for 5 min. Samples were with incubated 2% bovine serum albumin (BSA) for 30 min at room temperature to block for unspecific antibody binding. Following blocking, sections were washed three times in PBS and incubated with mouse monoclonal antibody against α-SMA (1:500) (Dako, Inc) for 24 h at 4° C. After 24 h sections were washed three times in PB and incubated with Alexa-Flour-488 anti-mouse secondary anti-body (1:500) (Invitrogen, Inc) for 30 min at room temperature. Sections were then washed three times in PBS and incubated with working strength oil-red O solution for 30 minutes at room temperature. Sections were then rinsed for 30 minutes under running tap water and cover-slipped with Vectashield hard mount plus DAPI (Vector Labs, Inc).

[5] = test system: hepatic stellate cells (HSCs); test: Hepatic stellate cell activation: α-SMA immunofluorescence of liver, HF-fed mice; settings: HF diet mice 4 months, vs HF-vehicle
Source text: as §1, §4

## CCCCOCCOc1nc(-c2ccc(C(=O)O)c(F)c2)sc1C [AC261066]
[1]; HF diet mice
  retinyl palmitate in liver, higher than HF-vehicle treated mice: 55%
  vitamin A deficiency (VA depletion) in liver: partially reverses
[1]
  liver retinyl palmitate and retinol compared to controls: significantly lowered
[2]
  hepatic mRNA level of MCP-1: decreases; also recorded: significantly diminish
  hepatic mRNA level of TNF-α: decreases
[2]; vs HF-vehicle
  hepatic mRNA level of alpha-SMA: decreased
HF-fed C57/BL6 mice [3]
  renal lipid accumulation (H and E): diminished; also recorded: markedly decreased
  renal lipid accumulation (oil red O): marked diminished; also recorded: comparably less
HF-fed C57/BL6 mice [4]
  hepatic lipid accumulation (oil red O): marked diminished
  hepatic steatosis / hepatocyte lipid accumulation (H and E): diminished; also recorded: prevent; also recorded: marked decreased
[5]
  activation of hepatic stellate cells (α-SMA positive staining in liver): diminished; also recorded: prevent; also recorded: decreased intensity and regions of α-SMA positive staining
[5]; listed as AC261011
  activation of hepatic stellate cells (α-SMA positive staining in liver): decreased

## O=C(O)c1ccc(-c2ccc3cc(O)c(C45CC6CC(CC(C6)C4)C5)cc3c2)cc1 [CD1530]
[1]; HF diet mice
  retinyl palmitate in liver, lower than HF-vehicle treated mice: ~48%
[1]
  liver retinyl palmitate and retinol compared to controls: significantly lowered
[2]
  hepatic mRNA level of MCP-1: markedly elevated
  hepatic mRNA level of TNF-α: markedly elevated
[2]; vs control diet
  hepatic mRNA level of SREBP1-c: markedly higher
HF-fed C57/BL6 mice [3]
  renal lipid accumulation (H and E): no decrease
HF-fed C57/BL6 mice [4]
  hepatic lipid accumulation (oil red O): not observed; also recorded: no evidence decreased
  hepatic steatosis / hepatocyte lipid accumulation (H and E): no decrease
[5]
  activation of hepatic stellate cells (α-SMA positive staining in liver): no evidence decreased
